Test [1] has as its target purified DHFR of strain 157/4696 of Staphylococcus aureus (Staphylococcus aureus, UniProt P13955). Description: biochemical.
For test [2], the system named is Staphylococcus aureus 101. As to the kind of experiment: MIC against Staphylococcus aureus 101. It is filed as cell-based. The conditions noted are these: Staphylococcus aureus 101, MRSA- and trimethoprim-resistant, clinical isolate, read-out: MIC Sa101.
In test [3] the target is T1, purified DHFR of strain Sp1/1 of Streptococcus pneumoniae (Streptococcus pneumoniae serotype 4, UniProt Q54801).
T1 sequence (Q54801 1-168 I100L): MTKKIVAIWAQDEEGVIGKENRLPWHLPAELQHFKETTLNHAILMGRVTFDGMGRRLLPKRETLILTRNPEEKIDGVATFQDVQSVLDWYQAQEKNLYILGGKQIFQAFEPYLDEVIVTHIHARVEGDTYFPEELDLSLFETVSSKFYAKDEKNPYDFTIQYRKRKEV
The class given is biochemical. The conditions noted are these: IC50 against purified DHFR of strain Sp1/1.

In test [4] the test system is Streptococcus pneumoniae 1/1. As to the kind of experiment: MIC against Streptococcus pneumoniae 1/1. The class given is cell-based. The conditions noted are these: Streptococcus pneumoniae 1/1, trimethoprim- and penicillin-resistant, serotype 6, clinical isolate, read-out: MIC Sp1/1.

The structures appear in SMILES notation. pIC50: −log10 of the molar value. Values after ≈ are worked out from the molar mass of the structure shown. Where two headings read alike, the source gives them in different places.

Here are results for 22 compounds from US6821980B1, “Substituted 5-benzyl-2,4-diaminopyrimidines” (Basilea Pharmaceutica AG, priority 1999, dated 2004).

In general, pIC50 refers to the negative decadic logarithm of the IC50, by convention in mol/L. A higher pIC50 goes with a small IC50.

Sequence of purified DHFR of strain 157/4696 of Staphylococcus aureus (P13955 whole entry): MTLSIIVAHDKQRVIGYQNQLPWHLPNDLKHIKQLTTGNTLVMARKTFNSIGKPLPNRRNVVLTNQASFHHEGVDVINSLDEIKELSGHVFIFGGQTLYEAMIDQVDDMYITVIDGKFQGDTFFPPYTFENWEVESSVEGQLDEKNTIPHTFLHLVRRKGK

For `CCOc1cc(Cc2cnc(N)nc2N)cc(OS(C)(=O)=O)c1-c1ccc(OC)cc1` [Example 16-a, Methanesulphonic acid 4-(2,4-diamino-pyrimidin-5-ylmethyl)-6-ethoxy-4′-methoxy-biphenyl-2-yl ester], the results for the pIC50 in test [1] and in test [3] (Table 2) were 6.51 and 7.68, respectively. Moreover, the MIC in test [2] (Table 2) is 4 mg/L (≈ 9 µM); in test [4] (Table 2), 2 mg/L (≈ 4.5 µM).

For the compound `CCOc1cc(Cc2cnc(N)nc2N)cc(OS(=O)(=O)CC)c1-c1ccc(OC)cc1` [Example 16-b, Ethanesulphonic acid 4-(2,4-diamino-pyrimidin-5-ylmethyl)-6-ethoxy-4′-methoxy-biphenyl-2-yl ester], the pIC50 is 7.00 in test [1] and 7.41 in test [3] (Table 2). Besides, the MIC in test [2] (Table 2) and in test [4] (Table 2) was 2 mg/L (≈ 4.36 µM) throughout.

Consider `CCOc1cc(Cc2cnc(N)nc2N)cc(OS(=O)(=O)C(C)C)c1-c1ccc(OC)cc1` [Example 16-c, Propane-2-sulphonic acid 4-(2,4-diamino-Ryimidin-5-ylmethyl)-6-ethoxy-4′-methoxy-biphenyl-2-yl ester], for which the values for the pIC50 in test [1] and in test [3] (Table 2) were 6.59 and 7.74, respectively. The MIC in test [2] (Table 2) and in test [4] (Table 2) was 2 mg/L (≈ 4.23 µM) throughout.

`CCOc1cc(Cc2cnc(N)nc2N)cc(OS(C)(=O)=O)c1-c1ccc2c(c1)OCO2` [Example 17-a, Methanesulphonic acid 2-benzof[1,3]dioxol-5-yl-5-(2,4-diamino-Ryrimidin-5-ylmethyl)-3-ethoxy-phenyl ester]: the pIC50 in test [1] was 6.22; in test [3] (Table 2), 7.42. The results for the MIC in test [2] (Table 2) and in test [4] (Table 2) were 4 mg/L (≈ 8.72 µM) and 2 mg/L (≈ 4.36 µM), respectively.

Turning to `CCOc1cc(Cc2cnc(N)nc2N)cc(OS(=O)(=O)CC)c1-c1ccc2c(c1)OCO2` [Example 17-b, Ethanesulphonic acid 2-benzo[1.3]dioxol-5-yl-5-(2,4-diamino-Iyrimidin-5-ylmethyl)-3-ethoxy-phenyl ester], the pIC50 in test [1] is 6.43; in test [3] (Table 2), 7.42. For the same compound, the MIC in test [2] (Table 2) worked out at 4 mg/L (≈ 8.47 µM); in test [4] (Table 2), 2 mg/L (≈ 4.23 µM).

As to `CCOc1cc(Cc2cnc(N)nc2N)cc(OS(=O)(=O)C(C)C)c1-c1ccc2c(c1)OCO2` [Example 17-c, Propane-2-sulphonic acid 2-benzo[1.3]dioxol-5-yl-5-(2,4-diamino-pyrimidin-5-ylmethyl)-3-ethoxy-phenyl ester], the negative logarithm of the IC50 (pIC50) in test [1] was 6.74; in test [3] (Table 2), 7.48. Further, the MIC in test [2] (Table 2) and in test [4] (Table 2) was 2 mg/L (≈ 4.11 µM) throughout.

Turning to `CCCS(=O)(=O)Oc1cc(Cc2cnc(N)nc2N)cc(OCC)c1-c1ccc2c(c1)OCO2` [Example 17-d, Propane-1-sulphonic acid 2-benzo[1.3]dioxol-5-yl-5-(2,4-diamino-pyrimidin-5-ylmethyl)-3-ethoxy-phenyl ester], the pIC50 was 6.82 in test [1] and 7.85 in test [3] (Table 2). Besides, the MIC in test [2] (Table 2) came out at 4 mg/L (≈ 8.22 µM); in test [4] (Table 2), 1 mg/L (≈ 2.06 µM).

In the case of `CCOc1cc(Cc2cnc(N)nc2N)cc(OS(=O)(=O)C(C)C)c1-c1ccc(N)cc1` [Example 18, Propane-2-sulphonic acid 4′-amino-4-(2,4-diamino-pyrimidin-5-ylmethyl)-6-ethoxy-biphenyl-2-yl ester], the pIC50 in test [1] was 7.41; in test [3] (Table 1), 8.25. For the same compound, the MIC in test [2] (Table 1) was found to be 2 mg/L (≈ 4.37 µM); in test [4] (Table 1) it was 1 mg/L (≈ 2.19 µM).

As for `CCOc1cc(Cc2cnc(N)nc2N)cc(OS(=O)(=O)N(C)C)c1-c1cccc(N)c1` [Example 19-a, Dimethyl-sulphamic acid 3′-amino-4-(2,4-diamino-pyrimidin-5-ylmethyl)-6-ethoxy-biphenyl-2-yl ester], the negative logarithm of the IC50 (pIC50) was 7.07 in test [1] and 8.21 in test [3] (Table 2). Besides, the MIC in test [2] (Table 2) and in test [4] (Table 2) was 1 mg/L (≈ 2.18 µM) each time.

As for `CCOc1cc(Cc2cnc(N)nc2N)cc(OS(=O)(=O)N2CCCCC2)c1-c1cccc(N)c1` [Example 19-b, Piperidine-1-sulphonic acid 3′-amino-4-(2,4-diamino-pyrimidin-5-ylmethyl)-6-ethoxy-biphenyl-2-yl ester], the negative logarithm of the IC50 (pIC50) in test [1] was 6.89; in test [3] (Table 2), 8.62. In addition, the MIC came to 1 mg/L (≈ 2.01 µM) in test [2] (Table 2) and 0.5 mg/L (≈ 1 µM) in test [4] (Table 2).

On to `CCOc1cc(Cc2cnc(N)nc2N)cc(OS(=O)(=O)N2CCCC2)c1-c1cccc(N)c1` [Example 19-c, Pyrrolidine-1-sulphonic acid 3′-amino-4-(2,4-diamino-pyrimidin-5-vlmethyl)-6-ethoxy-biphenyl-2-yl ester], for which the pIC50 in test [1] is 7.18; in test [3] (Table 2) it was 7.72. The values for the MIC in test [2] (Table 2) and in test [4] (Table 2) were 2 mg/L (≈ 4.13 µM) and 1 mg/L (≈ 2.06 µM), respectively.

For the compound `CCOc1cc(Cc2cnc(N)nc2N)cc(OS(=O)(=O)N(C)C(C)C)c1-c1cccc(N)c1` [Example 19-d, N-Isopropyl-N-methyl-sulphamic acid 3′-amino-4-(2,4-diamino-pyrimidin-5-ylmethyl)-6-ethoxy-biphenyl-2-yl ester], the negative-log IC50 (pIC50) is 7.26 in test [1] and 8.08 in test [3] (Table 2). Also, the MIC in test [2] (Table 2) and in test [4] (Table 2) was 2 mg/L (≈ 4.11 µM) in each case.

For the compound `CCOc1cc(Cc2cnc(N)nc2N)cc(OS(=O)(=O)N2CCOCC2)c1-c1cccc(N)c1` [Example 19-e, Morpholine-4-sulphonic acid 3′-amino-4-(2,4-diamino-pyrimidin-5-ylmethyl)-6-ethoxy-biphenyl-2-yl ester], the values for the pIC50 in test [1] and in test [3] (Table 2) were 7.42 and 8.41, respectively. Also, the MIC in test [2] (Table 2) worked out at 2 mg/L (≈ 4 µM); in test [4] (Table 2), 1 mg/L (≈ 2 µM).

For `CCOc1cc(Cc2cnc(N)nc2N)cc(OS(=O)(=O)N(C)CC)c1-c1cccc(N)c1` [Example 19-f, N-Ethyl-N-methyl-sulphamic acid 3′-amino-4-(2,4-diamino-vyrimidin-5-ylmethyl)-6-ethoxy-biphenyl-2-yl ester], the negative logarithm of the IC50 (pIC50) is 7.09 in test [1] and 8.21 in test [3] (Table 2). Moreover, the MIC in test [2] (Table 2) and in test [4] (Table 2) was 1 mg/L (≈ 2.12 µM) in each case.

With `CCOc1cc(Cc2cnc(N)nc2N)cc(OS(=O)(=O)N(C)C2CC2)c1-c1cccc(N)c1` [Example 19-g, N-Cclopropyl-N-methyl-sulphamic acid 3′-amino-4-(2,4-diamino-Ryrimidin-5-ylmethyl)-6-ethoxy-biphenyl-2-yl ester], the pIC50 was 7.25 in test [1] and 8.17 in test [3] (Table 2). For the same compound, the MIC in test [2] (Table 2) and in test [4] (Table 2) was 1 mg/L (≈ 2.06 µM) each time.

As for `CCOc1cc(Cc2cnc(N)nc2N)cc(OS(=O)(=O)N(CC)CC)c1-c1cccc(N)c1` [Example 19-h, Diethyl-sulphamic acid 3′-amino-4-(2,4-diamino-pyrimidin-5-ylmethyl)-6-ethoxy-biphenyl-2-yl ester], the pIC50 was 6.80 in test [1] and 9.26 in test [3] (Table 2). The MIC in test [2] (Table 2) turned out to be 2 mg/L (≈ 4.11 µM); in test [4] (Table 2), 1 mg/L (≈ 2.06 µM).

With `CCOc1cc(Cc2cnc(N)nc2N)cc(OS(=O)(=O)N(C)C)c1-c1ccc(O)cc1` [Example 20-a, Dimethyl-sulphamic acid 4-(2,4-diamino-pyrimidin-5-ylmethyl)-6-ethoxy-4′-hydroxy-biphenyl-2-yl ester], the pIC50 in test [1] was 6.82; in test [3] (Table 2) it was 8.12. Moreover, the MIC in test [2] (Table 2) turned out to be 2 mg/L (≈ 4.35 µM); in test [4] (Table 2), 1 mg/L (≈ 2.18 µM).

Turning to `CCOc1cc(Cc2cnc(N)nc2N)cc(OS(=O)(=O)N2CCCCC2)c1-c1ccc(O)cc1` [Example 20-b, Piperidine-1-sulphonic acid 4-(2,4-diamino-pyrimidin-5-ylmethyl)-6-ethoxy-4′-hydroxy-biphenyl-2-yl ester], the results for the negative-log IC50 (pIC50) in test [1] and in test [3] (Table 2) were 6.85 and 8.74, respectively. The MIC in test [2] (Table 2) is 1 mg/L (≈ 2 µM); in test [4] (Table 2) it was 0.5 mg/L (≈ 1 µM).

`CCOc1cc(Cc2cnc(N)nc2N)cc(OS(=O)(=O)N2CCCC2)c1-c1ccc(O)cc1` [Example 20-c, Pyrrolidine-1-sulrbonic acid 4-(2,4-diamino-pyrimidin-5-ylmethyl)-6-ethoxy-4′-hydroxy-biphenyl-2-yl ester]: the values for the negative-log IC50 (pIC50) in test [1] and in test [3] (Table 2) were 6.74 and 8.09, respectively. Also, the MIC in test [2] (Table 2) came out at 4 mg/L (≈ 8.24 µM); in test [4] (Table 2), 1 mg/L (≈ 2.06 µM).

Take `CCOc1cc(Cc2cnc(N)nc2N)cc(OS(=O)(=O)N2CCOCC2)c1-c1ccc(O)cc1` [Example 20-d, Morpholine-4-sulphonic acid 4-(2,4-diamino-pyrimidin-5-ylmethyl)-6-ethoxy-4′-hydroxy-biphenyl-2-yl ester]: the results for the pIC50 in test [1] and in test [3] (Table 2) were 7.02 and 8.24, respectively. For the same compound, the MIC in test [2] (Table 2) was 8 mg/L (≈ 16 µM); in test [4] (Table 2), 1 mg/L (≈ 1.99 µM).

For `CCOc1cc(Cc2cnc(N)nc2N)cc(OS(=O)(=O)N(C)C(C)C)c1-c1ccc(O)cc1` [Example 20-e, N-Isopropyl-N-methyl-sulphamic acid 4-(2,4-diamino-pvrimidin-5-ylmethyl)-6-ethoxy-4′-hydroxy-biphenyl-2-yl ester], the figures for the pIC50 in test [1] and in test [3] (Table 2) were 6.80 and 7.85, respectively. Moreover, the MIC in test [2] (Table 2) and in test [4] (Table 2) was 2 mg/L (≈ 4.1 µM) throughout.

As to `CCOc1cc(Cc2cnc(N)nc2N)cc(OS(=O)(=O)N(C)C2CC2)c1-c1ccc(O)cc1` [Example 20-f, N-Cyclopropld-N-methyl-sulphamic acid 4-(2,4-diamino-pyrimidin-5-ylmethyl)-6-ethoxy-4′-hydroxy-biphenyl-2-yl ester], the negative logarithm of the IC50 (pIC50) was 6.85 in test [1] and 8.01 in test [3] (Table 2). Further, the MIC in test [2] (Table 2) and in test [4] (Table 2) was 1 mg/L (≈ 2.06 µM) in each case.
